{"source": "patent US20050026871A1", "about": "(priority 2002, published 2005)", "origin": "cited, not measured here", "key": {"[1]": {"settings": "reported in the literature; cited from earlier work"}, "[2]": {"settings": "Physicians' Desk Reference, Rocaltrol Oral Solution; cited from earlier work"}}, "data": [{"smiles": "NCCCC(O)(P(=O)(O)O)P(=O)(O)O", "note": "[Alendronate, alendronate]", "values": [{"measurement": "pH at which alendronate is best absorbed", "setting": "[1]", "result": "~6"}]}, {"smiles": "C=C1/C(=C\\C=C2/CCC[C@]3(C)[C@@H]([C@H](C)CCCC(C)(C)O)CC[C@@H]23)C[C@@H](O)C[C@@H]1O", "note": "[calcitriol, 1α,25-dihydroxyvitamin D3]", "values": [{"measurement": "time to peak serum concentrations after ingestion", "setting": "[2]", "result": "three to six"}]}]}
